Measured values taken from patent US7629349B2, “Pyrazolo [3,4-d] pyrimidine derivatives and their use as purinergic receptor antagonists” (Vernalis Research Limited, priority 2001, dated 2009).
Counter-ions that a name gives are not always drawn.

System: Parkinsonian patients
Test: not given
Details: 15 Parkinsonian patients, up to 12 weeks, 150 mg/day oral; cited from earlier work

Structure (SMILES)	mean objective disability scores
Cn1c(=O)c2[nH]cnc2n(C)c1=O [theophylline, 1,3-dimethylxanthine]	significant improvements

Same assay, conditions: of 15 Parkinsonian patients, up to 12 weeks, 150 mg/day oral; cited from earlier work

Structure (SMILES)	patients reporting moderate or marked subjective improvement
Cn1c(=O)c2[nH]cnc2n(C)c1=O [theophylline, 1,3-dimethylxanthine]	11

Same assay, conditions: slow release oral theophylline preparation 150 mg/day, after one week; cited from earlier work

Structure (SMILES)	serum theophylline levels
Cn1c(=O)c2[nH]cnc2n(C)c1=O [theophylline, 1,3-dimethylxanthine]	4.44 mg/L

System: catalepsy
Test: not given
Details: in vivo; cited from earlier work

Structure (SMILES)	anticataleptic effects of a subthreshold dose of L-DOPA plus benserazide	catalepsy induced by haloperidol and reserpine
CCCn1c(=O)c2c(nc(/C=C/c3ccc(OC)c(OC)c3)n2C)n(CCC)c1=O [KF 17837, (E)-8-(3,4-dimethoxystyryl)-1,3-dipropyl-7-methylxanthine]	potentiated	reduced

Same assay, conditions: oral administration; cited from earlier work

Structure (SMILES)	cataleptic responses induced by intracerebroventricular CGS 21680
CCCn1c(=O)c2c(nc(/C=C/c3ccc(OC)c(OC)c3)n2C)n(CCC)c1=O [KF 17837, (E)-8-(3,4-dimethoxystyryl)-1,3-dipropyl-7-methylxanthine]	significantly ameliorated

System: not given
Test: not given
Details: not given

Structure (SMILES)	melting point
CC(C)n1ncc2c(-c3ccco3)nc(N)nc21 (as salt: HCl) [Example 21, 4-(2-furyl)-1-(1-methylethyl)-1H-pyrazolo[3,4-d]pyrimidine-6-amine]	191.4 to 191.5 °C
CCCCCn1ncc2c(-c3ccco3)nc(N)nc21 (as salt: HCl) [Example 23, 4-(2-furyl)-1-n-pentyl-1H-pyrazole[3,4-d]pyrimidine-6-amine]	218 °C
Nc1nc(-c2ccco2)c2cnn(CC(=O)Nc3ccccn3)c2n1 (as salt: HCl) [Example 29, 6-amino-4-(2-furyl)-N-(2-pyridyl)-1H-pyrazolo[3,4-d]pyrimidin-1-ylacetamide]	249.8 to 249.9 °C
Clc1nc(-c2ccco2)c2cnn(CCc3ccccc3)c2n1 [Example 1, 6-chloro-4-(2-furyl)-1-(2-phenylethyl)-1H-pyrazolo[3,4-d]pyrimidine]	85.1 to 85.6 °C
CC(C)(C)OC(=O)n1ncc2c(-c3ccco3)nc(N)nc21 [Example 4, tert-butyl 6-amino-4-(2-furyl)-1H-pyrazolo[3,4-d]pyrimidine-1-carboxylate]	261.9 to 262.7 °C
CCOC(=O)Cn1ncc2c(-c3ccco3)nc(N)nc21 [Example 26, ethyl 6-amino-4-(2-furyl)-1H-pyrazolo[3,4-d]pyrimidine-1-ylacetate]	177 to 177.1 °C
Nc1nc(-c2ccco2)c2cnn(CC(=O)NCc3ccccc3)c2n1 [Example 34, 6-amino-N-benzyl-4-(2-furyl)-1H-pyrazolo[3,4-d]pyrimidin-1-ylacetamide]	276.8 to 277.2 °C
Nc1nc(-c2ccco2)c2cnn(CC(=O)Nc3ccccc3)c2n1 [Example 35, 6-amino-4-(2-furyl)-N-phenyl-1H-pyrazolo[3,4-d]pyrimidin-1-ylacetamide]	276.8 to 277.2 °C
Nc1nc(-c2ccco2)c2cnn(CC(=O)NCc3ccco3)c2n1 [Example 37, 6-amino-4-(2-furyl)-N-(2-furylmetyl)-1H-pyrazolo[3,4-d]pyrimidin-1-ylacetamide]	247.9 to 249.4 °C
COc1cccc(NC(=O)Cn2ncc3c(-c4ccco4)nc(N)nc32)c1 [Example 43, 6-amino-4-(2-furyl)-N-(3-methoxyphenyl)-1H-pyrazolo[3,4-d]pyrimidin-1-ylacetamide]	267.4 to 271.5 °C
Nc1nc(-c2ccco2)c2cnn(CC(=O)NCCc3ccccc3)c2n1 [Example 44, 6-amino-4-(2-furyl)-N-(2-phenylethyl)-1H-pyrazolo[3,4-d]pyrimidin-1-ylacetamide]	231.1 to 231.2 °C
Nc1nc(-c2ccco2)c2cnn(CC(=O)Nc3ccccc3F)c2n1 [Example 45, 6-amino-N-(2-fluorophenyl)-4-(2-furyl)-1H-pyrazolo[3,4-d]pyrimidin-1-ylacetamide]	276.2 to 278.5 °C
Cc1ccc(Cn2ncc3c(-c4ccn[nH]4)nc(N)nc32)cc1 [Example 50, 1-(4-methylbenzyl)-4-(1H-pyrazol-3-yl)-1H-pyrazolo[3,4-d]pyrimidine-6-amine]	265.8 °C
Nc1nc(-c2nnc[nH]2)c2cnn(Cc3ccccc3F)c2n1 [Example 51, 1-(2-fluorobenzyl)-4-(1,2,4-triazol-3-yl)-1H-pyrazolo[3,4-d]pyrimidine-6-amine]	287.9 °C
Nc1nc(-c2ccn[nH]2)c2cnn(Cc3cccc([N+](=O)[O-])c3)c2n1 [Example 59, 1-(3-nitrobenzyl)-4-(3-pyrazolyl)-1H-pyrazolo[3,4-d]pyrimidine-6-amine]	278.5 to 279 °C
Nc1cccc(Cn2ncc3c(-c4nnc[nH]4)nc(N)nc32)c1 [Example 60, 1-(3-aminobenzyl)-4-(1,2,4-triazol-3-yl)-1H-pyrazolo[3,4-d]pyrimidine-6-amine]	193.3 to 193.4 °C
Nc1nc(-c2nccs2)c2cnn(Cc3cccc([N+](=O)[O-])c3)c2n1 [Example 61, 1-(3-nitrobenzyl)-4-(2-thiazolyl)-1H-pyrazolo[3,4-d]pyrimidine-6-amine]	193.3 to 193.4 °C
Nc1cccc(Cn2ncc3c(-c4nccs4)nc(N)nc32)c1 [Example 62, 1-(3-aminobenzyl)-4-(2-thiazolyl)-1H-pyrazolo[3,4-d]pyrimidine-6-amine]	177.8 to 178.3 °C
COc1cccc(Cn2ncc3c(-c4ccn[nH]4)nc(N)nc32)c1 [Example 64, 1-(3-methoxybenzyl)-4-(1H-pyrazol-3-yl)-1H-pyrazolo[3,4-d]pyrimidine-6-amine]	171 to 172 °C

Target: human adenosine A2A receptor (Homo sapiens, UniProt P29274)
Test: Binding affinities at hA2A receptors, displacement of [3H]-CGS 21680
Details: not given

human adenosine A2A receptor, sequence (P29274 whole entry): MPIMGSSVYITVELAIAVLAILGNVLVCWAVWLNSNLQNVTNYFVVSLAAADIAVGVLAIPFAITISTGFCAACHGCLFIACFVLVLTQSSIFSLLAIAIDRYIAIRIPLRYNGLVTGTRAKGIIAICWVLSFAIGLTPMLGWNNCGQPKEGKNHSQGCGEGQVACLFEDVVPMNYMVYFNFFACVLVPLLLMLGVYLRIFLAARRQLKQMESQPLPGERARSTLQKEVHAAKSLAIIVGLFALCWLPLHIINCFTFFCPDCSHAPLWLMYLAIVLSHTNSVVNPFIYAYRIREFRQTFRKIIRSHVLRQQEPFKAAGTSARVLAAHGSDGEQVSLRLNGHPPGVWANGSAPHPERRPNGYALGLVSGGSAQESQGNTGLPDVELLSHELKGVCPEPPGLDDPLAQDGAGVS

Structure (SMILES)	Ki
Nc1nc(-c2ccco2)c2cnn(Cc3ccccc3F)c2n1 [Example 14, 1-(2-fluorobenzyl)-4-(2-furyl)-1H-pyrazolo[3,4-d]pyrimidine-6-amine]	2 nM
Cc1cccc(Cn2ncc3c(-c4ccco4)nc(N)nc32)c1 [Example 15, 4-(2-furyl)-1-(3-methylbenzyl)-1H-pyrazolo[3,4-d]pyrimidine-6-amine]	2 nM
Nc1nc(-c2cccs2)c2cnn(Cc3ccccc3F)c2n1 [Example 28, 1-(2-fluorobenzyl)-4-(2-thienyl)-1H-pyrazolo[3,4-d]pyrimidine-6-amine]	5 nM
Nc1nc(-c2ccco2)c2cnn(CCCc3ccccc3)c2n1 [Example 31, 4-(2-furyl)-1-(3-phenylpropyl)-1H-pyrazolo[3,4-d]pyrimidine-6-amine]	2 nM
Nc1nc(-c2nnc[nH]2)c2cnn(Cc3ccccc3F)c2n1 [Example 51, 1-(2-fluorobenzyl)-4-(1,2,4-triazol-3-yl)-1H-pyrazolo[3,4-d]pyrimidine-6-amine]	71 nM

Same assay, conditions: human adenosine A2A receptor, radioligand [3H]-CGS 21680

Structure (SMILES)	Ki
Nc1nc(-c2ccco2)c2cnn(Cc3ccccc3Cl)c2n1 [Example 11, 1-(2-chlorobenzyl)-4-(2-furyl)-1H-pyrazolo[3,4-d]pyrimidine-6-amine]	9 nM
COc1cccc(Cn2ncc3c(-c4ccco4)nc(N)nc32)c1 [Example 12, 4-(2-furyl)-1-(3-methoxybenzyl)-1H-pyrazolo[2,4-d]pyrimidine-6-amine]	2 nM
Nc1nc(-c2ccco2)c2cnn(Cc3ccc(C(F)(F)F)cc3)c2n1 [Example 22, 4-(2-furyl)-1-(4-trifluoromethylbenzyl)-1H-pyrazolo[3,4-d]pyrimidine-6-amine]	6 nM
Nc1nc(-c2ccco2)c2cnn(Cc3c(F)cccc3F)c2n1 [Example 24, 1-(2,6-difluorobenzyl)-4-(2-furyl)-1H-pyrazolo[3,4-d]pyrimidine-6-amine]	2 nM
Nc1nc(-c2ccco2)c2cnn(Cc3cccc([N+](=O)[O-])c3)c2n1 [Example 30, 4-(2-furyl)-1-(3-nitrobenzyl)-1H-pyrazolo[3,4-d]pyrimidine-6-amine]	4 nM
Nc1cccc(Cn2ncc3c(-c4ccco4)nc(N)nc32)c1 [Example 32, 1-(3-aminobenzyl)-4-(2-furyl)-1H-pyrazolo[3,4-d]pyrimidine-6-amine]	4 nM
Nc1nc(-c2ccccn2)c2cnn(Cc3ccccc3F)c2n1 [Example 33, 1-(2-fluorobenzyl)-4-(2-pyridyl)-1H-pyrazolo[3,4-d]pyrimidine-6-amine]	12 nM
Nc1nc(-c2ccn[nH]2)c2cnn(Cc3ccccc3F)c2n1 [Example 55, 1-(2-fluorobenzyl)-4-(3-pyrazolyl)-1H-pyrazolo[3,4-d]pyrimidine-6-amine]	16 nM
Nc1nc(-c2ccco2)c2cnn(Cc3ccccc3N)c2n1 [Example 56, 1-(2-aminobenzyl)-4-(2-furyl)-1H-pyrazolo[3,4-d]pyrimidine-6-amine]	8 nM
